Experimental data published in patent publication EP4813990A1, “COMPOUND FOR TREATING CANCER” (INNOLAKE BIOPHARMA (HANGZHOU) CO., LTD., priority 2023, dated 2025).

Legend:
A3 receptor = A3 receptor (Homo sapiens, UniProt P0DMS8); experiment: Adenosine receptor selectivity, A2aR compared with A3; format: binding
From the text: Meanwhile, ILB-2109 had high selectivity for A2aR (compared with A1, A2b and A3 receptors, the selectivity was 18.9 times, 40.7 times and 3424.7 times respectively).

Plasma protein binding [1] = format: in vitro ADME; settings: one range given for CD-1 mice, Sprague-Dawley rats, Beagle dogs and cynomolgus monkeys
Plasma protein binding [2] = format: in vitro ADME; settings: one range given for CD-1 mice, Sprague-Dawley rats, Beagle dogs and cynomolgus monkeys; remark: listed apart in the source
CYP1A2 = molecular target: T1, CYP1A2 (Homo sapiens, UniProt P05177); experiment: Human liver microsome CYP inhibition (direct and time-dependent); format: in vitro ADME
T1 construct: In vitro human liver microsome tests; from tissue; host or cells: human liver microsomes
From the text: (§1) The non-dilution method was used to determine the time-dependent inhibitory effect of ILB-2109 on human liver microsomal cytochrome P450 isoenzymes (CYP1A2, CYP2B6, CYP2C8, CYP2C9, CYP2C19, CYP2D6 and CYP3A4). Generally, an IC50 shift multiple ≥1.5 was taken as the judgment standard for time-dependent inhibitors.

CYP2C9 = molecular target: T2, CYP2C9 (Homo sapiens, UniProt P11712); experiment: as above; format: in vitro ADME
T2 construct: In vitro human liver microsome tests; from tissue; host or cells: human liver microsomes
From the text: as §1

[3] = Single-dose toxicity study in cynomolgus monkeys; settings: cynomolgus monkey, in vivo, po, single intragastric administration within 24 h, observed 14 days, read-out: maximum tolerated dose (MTD)
Procedure: In accordance with the relevant requirements of the Good Laboratory Practice for Non-clinical Drug Studies issued by the National Medical Products Administration of the People's Republic of China, and following the test protocol and revisions, the safety pharmacology test, single-dose toxicity, genetic toxicity, etc. of ILB-2109 were explored.
Cynomolgus monkeys were given single intragastric administration of 0 (vehicle), 250, 500 and 1000 mg/kg ILB-2109 and observed continuously for 14 days after single administration. […] Within 30 min ~ 4 h after administration on the day of administration, mild vomiting (a small amount of food-like vomit) occurred in medium and high-dose groups. No abnormalities were found in body weight, food consumption, body temperature, respiration, electrocardiogram, blood routine, ophthalmic examination, clinical examination, bone marrow and gross anatomy. Under the test conditions, the maximum tolerated dose (MTD) of cynomolgus monkeys given single intragastric administration of ILB-2109 within 24 h was 1000 mg/kg. The test substance had effects on digestive system (gastrointestinal function, liver function).

[4] = test system: histidine-deficient Salmonella typhimurium strains (TA97a, TA98, TA100, TA102 and TA1535); experiment: AMES reverse mutation test; format: cell-based; settings: 128 ~ 5000 µg/plate, with or without S9 metabolic activation system
From the text: This test detected the ability of ILB-2109 to induce reverse mutation of histidine-deficient Salmonella typhimurium strains (TA97a, TA98, TA100, TA102 and TA1535) with and without exogenous metabolic activation system. […] Therefore, under the research conditions, the Ames test result was negative.

[5] = non-dilution method, IC50 shift multiple ≥1.5 as judgment standard

T2 sequence (P11712 whole entry): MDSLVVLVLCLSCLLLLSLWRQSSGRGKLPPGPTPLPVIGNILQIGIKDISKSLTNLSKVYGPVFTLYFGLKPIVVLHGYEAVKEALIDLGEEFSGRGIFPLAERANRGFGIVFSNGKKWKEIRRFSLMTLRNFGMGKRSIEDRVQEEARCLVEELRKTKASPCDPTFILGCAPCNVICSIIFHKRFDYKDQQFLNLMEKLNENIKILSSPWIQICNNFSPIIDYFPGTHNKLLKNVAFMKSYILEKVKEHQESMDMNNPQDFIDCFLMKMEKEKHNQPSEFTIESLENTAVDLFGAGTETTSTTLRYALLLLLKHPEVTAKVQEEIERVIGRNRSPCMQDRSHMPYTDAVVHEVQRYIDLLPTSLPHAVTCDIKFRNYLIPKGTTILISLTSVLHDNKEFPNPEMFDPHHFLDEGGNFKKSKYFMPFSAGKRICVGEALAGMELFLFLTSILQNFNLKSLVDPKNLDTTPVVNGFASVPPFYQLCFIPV
T1 sequence (P05177 whole entry): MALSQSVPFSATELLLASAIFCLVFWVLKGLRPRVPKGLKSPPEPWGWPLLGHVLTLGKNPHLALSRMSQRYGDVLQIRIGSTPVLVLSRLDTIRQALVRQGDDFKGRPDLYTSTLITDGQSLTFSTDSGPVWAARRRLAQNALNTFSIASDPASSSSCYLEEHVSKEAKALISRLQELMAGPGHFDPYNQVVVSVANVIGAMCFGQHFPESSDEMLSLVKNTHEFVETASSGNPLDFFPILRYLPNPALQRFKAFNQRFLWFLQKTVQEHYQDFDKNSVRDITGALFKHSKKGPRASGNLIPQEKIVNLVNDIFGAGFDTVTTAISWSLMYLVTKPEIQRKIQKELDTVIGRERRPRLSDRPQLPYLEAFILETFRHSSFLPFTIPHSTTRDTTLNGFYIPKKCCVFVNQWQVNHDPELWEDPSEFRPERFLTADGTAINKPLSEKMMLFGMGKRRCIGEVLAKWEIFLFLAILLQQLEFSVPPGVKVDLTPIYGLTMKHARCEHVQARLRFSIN
A3 receptor, sequence (P0DMS8 whole entry): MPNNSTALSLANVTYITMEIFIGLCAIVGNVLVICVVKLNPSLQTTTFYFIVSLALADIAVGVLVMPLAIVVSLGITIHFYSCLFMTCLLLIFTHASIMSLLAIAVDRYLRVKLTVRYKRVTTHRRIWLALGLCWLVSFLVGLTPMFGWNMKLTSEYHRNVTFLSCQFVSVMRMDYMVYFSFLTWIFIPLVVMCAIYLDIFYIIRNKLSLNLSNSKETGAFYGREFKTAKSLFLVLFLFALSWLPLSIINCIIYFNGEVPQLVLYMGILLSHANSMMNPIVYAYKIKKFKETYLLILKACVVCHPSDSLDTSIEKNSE

For `Cc1cc(-c2c(-c3ccccc3)nc(N)n3nc(CO)nc23)cc(C(F)(F)F)n1` [ILB-2109], the “selectivity for A2aR compared with A3 receptor” value (A3 receptor) was 3424.7 times, the “binding rate in plasma” value (Plasma protein binding [1]) was 87.3%-95.0% and the “binding rate in plasma” value (Plasma protein binding [2]) was 87.3%-95.0%. The IC50 (CYP1A2; human liver microsomes) was > 100 µM, the time-dependent inhibitory effect (CYP1A2; [5]) was “no time-dependent inhibitory effect” and the IC50 (CYP2C9; human liver microsomes) was 57.2 µM. The time-dependent inhibitory effect (CYP2C9; [5]) was “no time-dependent inhibitory effect”, the MTD at 14 days [3] was 1000 mg/kg and the Ames test result [4] was “negative”.
